Experimental data as given in patent publication US5494893A, “Stylostatin 2” (Arizona Board of Regents, a body corporate acting on behalf …, priority 1994, dated 1996).
In brackets after ≈: the same amount, converted by molar mass. Where a SMILES comes first, the peptide text is derived from it.

Legend:
[1] = system: murine P388 lymphocytic leukemia (PS system) cell line; conditions: earlier reported work (J. Org. Chem. 1992); cited from earlier work
[2] = system: U.S. National Cancer Institute panel of 60 human cancer cell lines; assay: NCI panel of 60 human cancer cell lines, growth inhibition; format: cell-based; conditions: NCI 60 cell line panel, quadruplicate tests, average over panel, 48 hours; read-out: overall panel-averaged GI50 concentration
Text: (§1) Current research in the control of cancer in the United States is coordinated by the National Cancer Institute (NCI). To determine whether a substance has anti-cancer properties, the NCI has established a systematic protocol. This protocol, which involves the testing of a substance against a standard cell line panel containing 60 human tumor cell lines, has been verified and has been accepted in scientific circles. The protocol, and the established statistical means for analyzing the results obtained by the standardized testing are fully described in the literature. See: Boyd, Dr. Michael R., Principles & Practice of Oncology, PPO Updates, Volume 3, Number 10, Oct. […]
(§2) Each drug is tested at five (5) doses: 100--10--1--0.1--0.01 μg/ml. Percent Growths are calculated for each dose. […]
(§3) At the start of an experiment, cells from the in vitro cell cultures are inoculated into the appropriate tubes or microtiter plates. One set of control tubes/plates is immediately counted to determine the number of cells at the start of the experiment. This is the "baseline count", or "Tzero reading". At the end of the experiment (48 hours later), a second set of control tubes/plates is analyzed to determine the "Control Growth" value. The growth (or death) of cells relative to the initial quantity of cells is used to define the "Percent of Growth".

[3] = system: OVCAR 3; assay: OVCAR 3 human cancer cell growth inhibition; format: cell-based; conditions: OVCAR 3 cell line
Text: as §1, §2, §3

Compound	P388 (PS system) cell line inhibition [1]	GI50 [2] [µM]	GI50 [3] [µg/mL]
cyclo (Pro-Phe-Asn-Ser-Leu-Ala-Ile) (PFNSLAI; head-to-tail cyclic; printed: Pro-Phe-Asn-Ser-Leu-Ala-Ile) [stylostatin 1, cycloheptapeptide earlier isolated from the same Stylotella sp. sponge]	inhibitor		
CC[C@H](C)[C@@H]1NC(=O)[C@H](CC(C)C)NC(=O)[C@@H]2CCCN2C(=O)[C@H]([C@@H](C)CC)NC(=O)[C@@H]2CCCN2C(=O)[C@H](CO)NC(=O)[C@H](Cc2ccccc2)NC1=O [stylostatin 2, cyclo (Pro-Leu-Ile-Phe-Ser-Pro-Ile)] (cyclo(FSPIPLI))		6.2	3.7 (≈ 4.82 µM)
